Source: the supplement of paper PMC10307832

Tests used:
Assay in all cases: relative viability (nuclei count vs DMSO), 5 days (fraction); higher = more cells survive
[1] = compound: CCC1=CN=CN=C1N2CCN(CC2)CC3=NC4=C(N3)C=C(C=C4)C(F)(F)F + Cc1cc(Nc2cc(N3CCN(C)CC3)nc(Sc3ccc(NC(=O)C4CC4)cc3)n2)n[nH]1 [Tozasertib] (partner 0.1 µM)
Summary of the method: (§1)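 Lung cancer cell lines in 1536-well plates were dosed by pin tool the day after seeding, either with one drug alone or with a fixed anchor-drug dose plus five library-drug doses (not always all listed) in √10 steps. After 5 days, cells were fixed and their nuclei stained in one step (final 0.05% Triton X-100, 1% formaldehyde, 1 ug/ml Hoechst), then counted on 4× images. Relative viability is the nuclei count in treated wells divided by that in vehicle wells. Values are medians of duplicate plates.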

Mirin + Dasatinib = compound: N=C1NC(=O)/C(=C/c2ccc(O)cc2)S1 [Mirin] + Cc1nc(Nc2ncc(C(=O)Nc3c(C)cccc3Cl)s2)cc(N2CCN(CCO)CC2)n1 [Dasatinib] (partner 0.075 µM)
Summary of the method: as §1

[2] = compound: CCn1c(-c2nonc2N)nc2cnc(Oc3cccc(NC(=O)c4ccc(OCCN5CCOCC5)cc4)c3)cc21 + Nc1nc2[nH]cc(CCc3ccc(C(=O)N[C@@H](CCC(=O)O)C(=O)O)cc3)c2c(=O)[nH]1 [Pemetrexed] (partner 0.2 µM)
Summary of the method: as §1

[3] = compound: CCn1c(-c2nonc2N)nc2cnc(Oc3cccc(NC(=O)c4ccc(OCCN5CCOCC5)cc4)c3)cc21 + CC(=O)Nc1cccc(-n2c(=O)n(C3CC3)c(=O)c3c(Nc4ccc(I)cc4F)n(C)c(=O)c(C)c32)c1 [Trametinib] (partner 0.02 µM)
Summary of the method: as §1

Row | Cell Line | relative viability ([1]; first compound 0.04 µM) | relative viability ([1]; first compound 0.1265 µM) | relative viability ([1]; first compound 0.4 µM) | relative viability ([1]; first compound 4 µM) | relative viability (Mirin + Dasatinib; first compound 0.25 µM) | relative viability (Mirin + Dasatinib; first compound 0.7906 µM) | relative viability (Mirin + Dasatinib; first compound 2.5 µM) | relative viability (Mirin + Dasatinib; first compound 7.906 µM) | relative viability (Mirin + Dasatinib; first compound 25 µM) | relative viability ([2]; first compound 0.04 µM) | relative viability ([2]; first compound 0.1265 µM) | relative viability ([2]; first compound 0.4 µM) | relative viability ([2]; first compound 1.265 µM) | relative viability ([2]; first compound 4 µM) | relative viability ([3]; first compound 0.04 µM) | relative viability ([3]; first compound 0.1265 µM) | relative viability ([3]; first compound 0.4 µM) | relative viability ([3]; first compound 1.265 µM) | relative viability ([3]; first compound 4 µM) | relative viability ([1]; first compound 1.265 µM)
1 | NCI-H596 | 0.921 | 0.949 | 0.758 | 1.04 | 0.643 | 0.596 | 0.559 | 0.525 | 0.569 | 0.438 | 0.484 | 0.462 | 0.451 | 0.48 | 0.797 | 0.804 | 0.825 | 0.555 | 0.657 | 
2 | NCI-H647 | 0.253 | 0.296 | 0.375 | 0.393 | 0.152 | 0.177 | 0.216 | 0.174 | 0.132 | 0.21 | 0.16 | 0.143 | 0.122 | 0.137 | 0.494 | 0.38 | 0.261 | 0.303 | 0.286 | 0.206
3 | NCI-H650 | 0.78 | 0.76 | 0.765 | 0.753 | 0.455 | 0.391 | 0.397 |  | 0.506 | 1.05 | 0.799 | 0.454 | 0.425 | 0.458 | 1.11 | 0.826 | 0.597 | 0.587 | 0.588 | 0.616
4 | NCI-H661 | 0.371 | 0.348 | 0.362 | 0.366 | 0.985 | 0.737 | 0.884 | 0.734 | 0.697 | 0.922 | 0.994 | 0.893 | 0.74 | 0.513 | 0.469 | 0.498 | 0.355 | 0.451 | 0.346 | 0.322
5 | NCI-H838 | 0.278 | 0.253 | 0.306 | 0.268 | 0.275 | 0.277 | 0.309 | 0.394 | 0.346 | 0.252 | 0.218 | 0.187 | 0.179 | 0.156 | 0.347 | 0.231 | 0.213 | 0.17 | 0.188 | 0.24
6 | NCI-H1355 | 0.566 | 0.513 | 0.495 | 0.421 | 0.766 | 0.724 | 0.691 | 0.564 | 0.648 | 1.12 | 1.05 | 0.769 | 0.835 | 0.581 | 0.322 | 0.433 | 0.434 | 0.392 | 0.398 | 0.413
7 | NCI-H1395 | 0.733 | 0.807 | 0.715 | 0.756 | 0.439 | 0.434 | 0.429 | 0.376 | 0.418 | 0.961 | 0.825 | 0.736 | 0.519 | 0.434 | 1.18 | 0.986 | 0.849 | 0.622 | 0.717 | 0.698
8 | NCI-H1437 | 0.419 | 0.364 | 0.366 | 0.294 | 0.405 | 0.41 | 0.386 | 0.309 | 0.347 | 0.324 | 0.317 | 0.297 | 0.216 | 0.201 | 0.599 | 0.556 | 0.517 | 0.435 | 0.403 | 0.367
